Assay results as given in publication PMC9763021, “Comprehensive Assessment of Biomolecular Interactions of Morpholine-Based Mixed Ligand Cu(II) and Zn(II) Complexes of 2,2′-Bipyridine as Potential Anticancer and SARS-CoV-2 Agents: A Synergistic Experimental and Structure-Based Virtual Screening” (Bioinorganic Chemistry and Applications, 2022).

Key:
BSA = BSA (Bos taurus, UniProt P02769); assay: FRET computation, donor (BSA) - acceptor (compound); format: binding, bovine; parameters: kET (rate of energy transfer): unit not given here; settings: for J, spectral overlap integral: BSA donor, compound acceptor; for B (brightness of complex-BSA system): free BSA = 6,573.60
bovine serum albumin = bovine serum albumin (Bos taurus, UniProt P02769); assay: BSA binding by UV-visible absorption titration; settings: for Chromism (% H), hyperchromism: BSA 278 nm; for Δλ (nm), blue shift of BSA band: Tris-HCl, 25 μM BSA; for ∆Gb°: –RT lnKapp, 298 K
Description: In the presence of Tris-HCl buffer solution, the UV-vis absorption titrations were done with a 25 μM concentration of BSA at room temperature. While the sample concentrations (0–25 μM) increased in the same BSA concentration solution, the change in the absorption band at 278 nm was continuously noted.
The UV-visible spectral titration properties are imperatively supported to scrutinize the structural changes and the nature of quenched biomolecules by the chemical substance. The titration was executed for BSA in the presence and absence of substances in Tris-HCl solution (Figure 7 and Table 7). Two distinctive adsorption peaks can be noticed in the UV-visible spectra of free BSA: one at 210 nm, which is connected to the polypeptide backbone, and the other at 280 nm, which is responsible for Trp, Tyr, and Phe aromatic amino acid residues. BSA's interaction with the test substances is designated by alterations in the electronic absorption spectra. Quenching typically occurs in either a static or dynamic phase. The static quenching mechanism only involves the synthesis of a bovine serum albumin-compound in the ground state, when a dynamic quenching mechanism involves the temporary presence of the excited state due to diffusion, which brings the BSA and the compound into close proximity. In addition, the dynamic quenching mechanism has no outcome on the electronic absorption spectrum; it only affects the excited state. Furthermore, both types have different temperature dependences; for example, in dynamic quenching, the quenching constants are meant to rise with temperature. Conversely, raised temperatures in static quenching favour decreased stability and lower quenching constants. […] It also recommended that bovine serum albumin and the test compounds in the ground state interact statically. In this case, the evaluated hyperchromism was found in the range of 47.79 to 65.62%. […] The Benesi–Hildebrand (37) is supported to evaluate the Kb values (Table 7). The Kapp findings for all substances were estimated from the finding of the intercept divided slope in the linear regression plot of [(A∞ − A0)/(Ax − A0)] vs. {1/[compound]} M^−1(Figure S34). The evaluated Kb findings for all test substances were in the subsequent order: (1a) > (2a) > (HL) with ∆Gb° values from –22.1246 to –28.0038 kJ·mol^−1. Complex (1a) is also clearly shown to have the greatest spontaneous binding efficacy with BSA among others.
Hyperchromism%=(A∞ − A0)/A∞ × 100; A0 is denoted as absorbance of BSA alone at 278 nm, A∞ is represented as absorbance of the fully bound form of BSA with complex or ligand, and Ax is absorbance of BSA in the addition of different concentration of complex or ligand, Gibb's free energy change ΔGb°=–RT lnKapp (where R = […] and T = 298 K); Kapp is denoted as apparent binding constant evaluated from the UV-vis absorption spectral titration.(37) A∞−A0/AX−A0=1/KbCompound+1, where ∆Amax = (A∞ − A0), ∆A = (Ax − A0), A0, Ax, and A∞ are denoted as the absorbance of free BSA, the absorbance of BSA in the increment concentrations of the compound, and the absorbance value of the fully bound form of bovine serum albumin with substance, respectively. Error limit ±2.5%.

Aspergillus niger = assay: Agar disc diffusion, strain H; format: cell-based; parameters: (inhibition %): concentration or dose not given beside the values; settings: for diameter of the clear zone inhibition: control = 6 mm
Description: In-vitro antimicrobial properties were evaluated for all samples by the agar disc diffusion method towards different fungal and bacterial strains. Additionally, the reported inhibition zone values were comparatively analyzed with the standard antifungal drugs ketoconazole and amphotericin B as well as the standard antibiotic medications streptomycin and amikacin.
The current research has a curious focus on the in vitro antimicrobial properties of biological systems because these studies are crucial for developing effective antibacterial and antifungal medications. […] It can also be spelled out based on the chelation theory proposed by Overtone and Tweedy. Chelation theory points out that the partial exchanging of the positive charge of the metal center with donor moieties, and overlap of the ligand orbitals will reduce the greater degree of the metal ion's polarity, which ultimately rises the delocalization of π and d electrons over the full chelated ring system. By raising the size of the metal ion due to the retarding of polarization, chelation may also enhance the complexes' lipophilic characteristics, which further stimulate the lipid membrane permeability and break down the bacteria' enzymes responsible for cell wall formation, therefore slowing down the regular cell processes. By preventing the production of cell walls/proteins/DNA, including by obstructing folate metabolism and the cytoplasmic membrane, antimicrobial drugs frequently either fully eliminate microbes or only prevent their cell growth. Additionally, the samples' mode of action may be employed in disrupting the cell's respiration process by forming an H-bond during the morpholine-fused iminic group coordinated with the active metal center of its components, inhibiting proliferation of the cell. […] The difference in the antimicrobial efficacy of some of the compounds towards various microorganisms influences on the impermeability of the cells of the germs or the diversity of ribosomes of the microbes. The % of the inhibition of all substances is estimated from (45) (Table 9).
(A, B, C, D, and E are represented as gram negative bacteria species Escherichia coli, Salmonella enteric serovar typhi, Salmonella enteric serovar typhi, Pseudomonas aeruginosa, and Shigella flexneri, respectively. F & G are denoted as gram positive bacteria species Staphylococcus aureus and Bacillus cereus. H, I, and J are represented as fungal strains Aspergillus niger, Candida albicans, and Mucor indicus. Standard drugs for bacterial strains: Amikacin & Streptomycin Standard drugs for fungal strains: Ketoconazole and Amphotericin B. [Control (DMSO) = 6 mm].(44) Inhibition %=T–C/T×100, where T and C are represented as the diameter of microbial growth of the sample plates and the control plate (6 mm), respectively. Error limits ±2.5–5.0% (P ≤ 0.05).

bovine serum albumin, sequence (P02769 25-607): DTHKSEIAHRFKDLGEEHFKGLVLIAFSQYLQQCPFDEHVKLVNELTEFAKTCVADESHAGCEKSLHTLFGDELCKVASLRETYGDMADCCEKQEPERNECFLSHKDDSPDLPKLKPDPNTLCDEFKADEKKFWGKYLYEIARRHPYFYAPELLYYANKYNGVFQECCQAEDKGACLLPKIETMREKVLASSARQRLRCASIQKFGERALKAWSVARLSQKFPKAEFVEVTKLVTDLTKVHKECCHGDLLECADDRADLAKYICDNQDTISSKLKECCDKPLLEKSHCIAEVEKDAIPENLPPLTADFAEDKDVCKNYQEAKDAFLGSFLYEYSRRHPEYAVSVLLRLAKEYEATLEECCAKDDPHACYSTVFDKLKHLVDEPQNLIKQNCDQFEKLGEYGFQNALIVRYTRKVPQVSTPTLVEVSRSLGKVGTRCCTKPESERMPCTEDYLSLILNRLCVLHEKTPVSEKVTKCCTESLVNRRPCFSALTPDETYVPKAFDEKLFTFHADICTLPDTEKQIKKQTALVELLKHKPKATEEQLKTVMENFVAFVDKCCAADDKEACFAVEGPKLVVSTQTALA

Structure (SMILES) | E (efficiency of energy transfer) (BSA) | R0 (Förster radius) (BSA) | kET (rate of energy transfer) (BSA) | r (donor-acceptor separation) (BSA) | J, spectral overlap integral (BSA) | B (brightness of complex-BSA system) (BSA) | Binding constant Kapp by BH method (bovine serum albumin) | Chromism (% H), hyperchromism (bovine serum albumin) | Δλ (nm), blue shift of BSA band (bovine serum albumin) | ∆Gb° (bovine serum albumin) | (inhibition %) (Aspergillus niger) | diameter of the clear zone inhibition (Aspergillus niger) | Kd (bovine serum albumin)
[Cu+2].[O-]c1ccccc1N=Cc1ccc(N2CCOCC2)cc1.[O-]c1ccccc1N=Cc1ccc(N2CCOCC2)cc1.c1ccc(-c2ccccn2)nc1 [(1a), [Cu(L)2(bpy)]] | 0.5769 | 2.4090 nm | 13.6340 | 2.2877 nm | 0.7607 × 10^−14 (LM^−1·cm^3) | 5187.78 M⁻¹ cm⁻¹ | 81059 M⁻¹ | 65.62% | 05 nm | -6.69307 kcal/mol | 45% | 11 mm | –
Oc1ccccc1N=Cc1ccc(N2CCOCC2)cc1 [(HL), 2-(4-morpholinobenzylideneamino)phenol] | 0.3462 | 2.4400 nm | 5.2957 | 2.7127 nm | 0.8215 × 10^−14 (LM^−1·cm^3) | 5339.79 M⁻¹ cm⁻¹ | – | 47.79% | 02 nm | -5.28791 kcal/mol | 40% | 10 mm | 132 µM
[O-]c1ccccc1N=Cc1ccc(N2CCOCC2)cc1.[O-]c1ccccc1N=Cc1ccc(N2CCOCC2)cc1.[Zn+2].c1ccc(-c2ccccn2)nc1 [(2a), [Zn(L)2(bpy)]] | 0.5615 | 2.2770 nm | 10.4206 | 2.1851 nm | 0.5425 × 10^−14 (LM^−1·cm^3) | 4642.53 M⁻¹ cm⁻¹ | 44355 M⁻¹ | 55.04% | 04 nm | -6.33389 kcal/mol | 33% | 09 mm | –
